≈ marks a conversion by molar mass, not a printed value. Calls of active or inactive are those of the source. The rule behind the calls is not given here.
Tests used:
Bacillus subtilis = test: Antibacterial activity against penicillin-susceptible Bacillus subtilis ATCC9372 by broth microdilution assay; type: functional
Enterococcus faecalis = test: Antibacterial activity against vancomycin susceptible Enterococcus faecalis ATCC29212 by broth microdilution assay; type: functional
Klebsiella pneumoniae = test: Antibacterial activity against Klebsiella pneumoniae ATCC10031 by broth microdilution assay; type: functional
Acinetobacter baumannii = test: Antibacterial activity against Acinetobacter baumannii ATCC19606 by broth microdilution assay; type: functional
Escherichia coli = test: Antibacterial activity against penicillin-susceptible Escherichia coli ATCC25922 by broth microdilution method; type: functional
Pseudomonas aeruginosa = test: Antibacterial activity against penicillin-susceptible Pseudomonas aeruginosa ATCC27853 by broth microdilution method; type: functional
Staphylococcus aureus [1] = test: Antibacterial activity against Staphylococcus aureus ATCC43300 infected in sepsis mouse model assessed as reduction in liver damage at 5 mg/kg pre-infected with bacteria for 1 hrs followed by compound administration at 12 hrs interval for 2 days by H and E staining based analysis; type: functional, organism-based; conditions: time 2.0 day
Staphylococcus aureus [2] = test: Antibacterial activity against Staphylococcus aureus ATCC43300 infected in sepsis mouse model assessed as reduction in spleen damage at 5 mg/kg pre-infected with bacteria for 1 hrs followed by compound administration at 12 hrs interval for 2 days by H and E staining based analysis; type: functional, organism-based; conditions: time 2.0 day
Staphylococcus aureus [3] = test: Antibacterial activity against Staphylococcus aureus ATCC43300 infected in sepsis mouse model assessed as reduction in kidney damage at 5 mg/kg pre-infected with bacteria for 1 hrs followed by compound administration at 12 hrs interval for 2 days by H and E staining based analysis; type: functional, organism-based; conditions: time 2.0 day
Staphylococcus aureus [4] = test: Antibacterial activity against Staphylococcus aureus ATCC43300 infected in sepsis mouse model assessed as reduction in liver inflammation at 5 mg/kg pre-infected with bacteria for 1 hrs followed by compound administration at 12 hrs interval for 2 days by H and E staining based analysis; type: functional, organism-based; conditions: time 2.0 day
Staphylococcus aureus [5] = test: Antibacterial activity against Staphylococcus aureus ATCC43300 infected in sepsis mouse model assessed as reduction in spleen inflammation at 5 mg/kg pre-infected with bacteria for 1 hrs followed by compound administration at 12 hrs interval for 2 days by H and E staining based analysis; type: functional, organism-based; conditions: time 2.0 day
Staphylococcus aureus [6] = test: Antibacterial activity against Staphylococcus aureus ATCC43300 infected in sepsis mouse model assessed as reduction in kidney inflammation at 5 mg/kg pre-infected with bacteria for 1 hrs followed by compound administration at 12 hrs interval for 2 days by H and E staining based analysis; type: functional, organism-based; conditions: time 2.0 day
Staphylococcus aureus [7] = test: Drug resistance, ratio of MIC for Staphylococcus aureus ATCC43300 measured after 17 passages to MIC for Staphylococcus aureus ATCC43300 measured after first exposure; type: functional
Staphylococcus aureus [8] = test: Antibacterial activity against erythromycin susceptible Staphylococcus aureus ATCC25923 by broth microdilution assay; type: functional
Staphylococcus aureus [9] = test: Antibacterial activity against penicillin-resistant Staphylococcus aureus ATCC31007 by broth microdilution assay; type: functional
Staphylococcus aureus [10] = test: Antibacterial activity against penicillin-resistant Staphylococcus aureus ATCC43300 by broth microdilution assay; type: functional
[11] = test system: Staphylococcus epidermidis; test: Antibacterial activity against erythromycin-susceptible Staphylococcus epidermidis ATCC12228 by broth microdilution assay; type: functional
[12] = Hemolytic activity in red blood cells (unknown origin); type: toxicity, cell-based, Erythrocyte
[13] = Selectivity index, ratio of HC50 for hemolytic activity in red blood cells (unknown origin) to MIC for antibacterial activity against penicillin-resistant Staphylococcus aureus ATCC43300; type: toxicity, cell-based, RBC; conditions: read-out: Selectivity Index
[14] = Selectivity index, ratio of HC50 for hemolytic activity in red blood cells (unknown origin) to MIC for antibacterial activity against penicillin-susceptible Escherichia coli ATCC25922; type: toxicity, cell-based, RBC; conditions: read-out: Selectivity Index

Structure (SMILES)	MIC (Bacillus subtilis)	MIC (Enterococcus faecalis)	MIC (Klebsiella pneumoniae)	MIC (Acinetobacter baumannii)	MIC (Escherichia coli)	MIC (Pseudomonas aeruginosa)	Activity (Staphylococcus aureus [1])	Activity (Staphylococcus aureus [2])	Activity (Staphylococcus aureus [3])	Activity (Staphylococcus aureus [4])	Activity (Staphylococcus aureus [5])	Activity (Staphylococcus aureus [6])	Ratio (Staphylococcus aureus [7])	MIC (Staphylococcus aureus [8])	MIC (Staphylococcus aureus [9])	MIC (Staphylococcus aureus [10])	MIC [11]	HC50 [12]	selectivity ratio [13]	selectivity ratio [14]
CN[C@H](CC(C)C)C(=O)N[C@H]1C(=O)N[C@@H](CC(N)=O)C(=O)N[C@H]2C(=O)N[C@H]3C(=O)N[C@H](C(=O)N[C@H](C(=O)O)c4cc(O)cc(O)c4-c4cc3ccc4O)[C@H](O)c3ccc(c(Cl)c3)Oc3cc2cc(c3O[C@@H]2O[C@H](CO)[C@@H](O)[C@H](O)[C@H]2O[C@H]2C[C@](C)(N)[C@H](O)[C@H](C)O2)Oc2ccc(cc2Cl)[C@H]1O [VANCOMYCIN]	0.5 µg/mL (≈ 0.345 µM)	2 µg/mL (≈ 1.38 µM)	128 µg/mL (≈ 88.3 µM)	16 µg/mL (≈ 11 µM)	128 µg/mL (≈ 88.3 µM)	> 128 µg/mL	Active	Active	Active	Active	Active	Active	–	–	–	–	–	–	–	–
CCn1cc(C(=O)O)c(=O)c2cc(F)c(N3CCNCC3)cc21 [NORFLOXACIN]	–	–	–	–	–	–	–	–	–	–	–	–	256	–	–	–	–	–	–	–
CCCCCC[N+](C)(C)CCCOc1ccc(/C=C/C(=O)c2ccc(OCCC[N+](C)(C)CCCCCC)cc2)cc1.[Br-].[Br-]	0.5 µg/mL	1 µg/mL	4 µg/mL	16 µg/mL	4 µg/mL	32 µg/mL	–	–	–	–	–	–	–	1 µg/mL	1 µg/mL	1 µg/mL	0.5 µg/mL	1130 µg/mL	1130	283
CCCCCCCCCCCC[N+](C)(C)CCCOc1ccc(/C=C/C(=O)c2ccc(OCCC[N+](C)(C)CCCCCCCCCCCC)cc2)cc1.[Br-].[Br-]	> 128 µg/mL	> 128 µg/mL	> 128 µg/mL	> 128 µg/mL	> 128 µg/mL	> 128 µg/mL	–	–	–	–	–	–	–	16 µg/mL	16 µg/mL	> 128 µg/mL	64 µg/mL	21.2 µg/mL	< 0.2	–
O=C(Cc1ccc(-c2ccccc2)cc1)Nc1cc[n+](CCCOc2ccc(C(=O)/C=C/c3ccccc3)cc2)cc1.[Br-]	> 128 µg/mL	> 128 µg/mL	> 128 µg/mL	> 128 µg/mL	> 128 µg/mL	> 128 µg/mL	–	–	–	–	–	–	–	> 128 µg/mL	128 µg/mL	> 128 µg/mL	> 128 µg/mL	> 1280 µg/mL	> 10	–
CCCCCCCCNC(=O)C[N+](C)(C)CCCOc1ccc(/C=C/C(=O)c2ccc(OCCC[N+](C)(C)CC(=O)NCCCCCCCC)cc2)cc1.[Br-].[Br-]	4 µg/mL	4 µg/mL	32 µg/mL	16 µg/mL	8 µg/mL	128 µg/mL	–	–	–	–	–	–	–	4 µg/mL	8 µg/mL	4 µg/mL	8 µg/mL	69.5 µg/mL	17.4	–

Reference: ChEMBL document CHEMBL6092194, “Development of membrane-targeting chalcone derivatives as antibacterial agents against multidrug-resistant bacteria” (Eur J Med Chem, 2024)
